From patent publication US10336746B1, “RAD51 inhibitors” (Cyteir Therapeutics, Inc., priority 2017, dated 2019) come the findings set out here.

In data set [1] the test system is WI-38 cells (AID negative). The data set can be described thus: Primary screening cell killing assay repeated in WI-38 cells (AID negative). Type of data set: cell-based. The note with it: Homo sapiens, 168 h, cell death on Day 7, Cell-Titer Glo. The essentials:
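Cell-killing counter-screen in AID-negative WI-38 cells, probing RAD51 inhibition via AID/RAD51 synthetic lethality. Viability luminescence (RLU) was media-subtracted, normalized to DMSO wells, and converted to percent kill (1 − normalized RLU) × 100; EC50 came from non-linear regression on a semi-log scale.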

Data set [2] relates to ARPE19/HPV16 (HPV Immortalized RPE). Nature of the data set: Cell line screen, ARPE19/HPV16. The note with it: ARPE-19, AICDA Expression Negative. Type of data set: cell-based. The method, then: (§1) The activity of the claimed compounds was measured in a variety of cell lines with different expression levels of activation induced cytidine deaminase (AICDA). The potency assay was repeated in all of the listed cell lines and the EC50 values recorded.

A further data set deals with OV56 (Ovary). Nature of the data set: Cell line screen, OV56. In kind it is cell-based. As to conditions: AICDA Expression Low. On the procedure: as §1
A further data set concerns WSU-FSCCL (Lymphoma). The data set can be described thus: Cell line screen, WSU-FSCCL. In kind it is cell-based. The note with it: AICDA Expression Negative. The method, then: as §1
The next data set has as its system KYSE-510 (Head and Neck). The data set can be described thus: Cell line screen, KYSE-510. As to conditions: Homo sapiens, AICDA Expression Negative. Type of data set: cell-based. The method, then: as §1
A further data set deals with U-698-M (Lymphoma). The data set can be described thus: Cell line screen, U-698-M. Type of data set: cell-based. As to conditions: AICDA Expression High. The method, then:
as §1

A short description of data set [3]: Pharmacokinetic (PK) study, plasma by LC-MS. In kind it is in vivo, Rat. As to conditions: po @ 80 mg/kg (30% PEG400, 10% Vitamin E TPGS in water); for half-life: plasma. The method, then:
PK studies in mice were used to determine the fate of the compounds in a whole organism. Rats were treated with the compounds either orally of via IV at the indicated doses and followed for up to 24 hours. Plasma samples were taken at different time points and analyzed by LC-MS.

Another data set deals with Daudi (Lymphoma). Nature of the data set: Cell line screen, Daudi. As to conditions: Homo sapiens, AICDA Expression High. In kind it is cell-based. The method, then: as §1
For another data set, the system named is CCRF-SB (Leukemia). The data set can be described thus: Cell line screen, CCRF-SB. In kind it is cell-based. The note with it: Homo sapiens, AICDA Expression High. On the procedure:
as §1

Another data set relates to KYSE-70 (Head and Neck). The data set can be described thus: Cell line screen, KYSE-70. As to conditions: Homo sapiens, AICDA Expression Low. Type of data set: cell-based. The method, then:
as §1

A further data set relates to SNU-5 (Gastric). Nature of the data set: Cell line screen, SNU-5. In kind it is cell-based. The note with it: Homo sapiens, AICDA Expression Low. On the procedure: as §1
Another data set deals with KG-1 (Leukemia). Nature of the data set: Cell line screen, KG-1. In kind it is cell-based. As to conditions: AICDA Expression Negative. On the procedure: as §1
In data set [4] the test system is Daudi cell line (AID positive). The data set can be described thus: Primary screening cell killing assay, Daudi cell line (AID positive). The note with it: Homo sapiens, 168 h, cell death on Day 7, Cell-Titer Glo. Type of data set: cell-based. A digest of the protocol:
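AID-positive Daudi cells, 1250 per well, were exposed to serially diluted compounds for 7 days at 37° C. Viability read by CellTiter-Glo luminescence; percent cell death and EC50 derived against untreated wells after media-blank subtraction.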

The subject of the next data set is SNU-1 (Gastric). The data set can be described thus: Cell line screen, SNU-1. The note with it: Homo sapiens, SNU1, AICDA Expression Negative. Type of data set: cell-based. On the procedure: as §1
For the next data set, the system named is TOV-1120D (Ovary). The data set can be described thus: Cell line screen, TOV-1120D. In kind it is cell-based. The note with it: AICDA Expression Negative. The method, then:
as §1

The structures appear in SMILES notation.

One may read the EC50 as the midpoint of the concentration-response curve. A lower EC50 goes with an effect from little substance. What is called half-life is the time needed for the level to fall by half in the phase considered. Low readings indicate rapid decline, high ones slow decline. As for `CC(C)OC(=O)Nc1ccc(-c2cnc([C@H]3CC[C@H](NC(=O)OC(C)C)CC3)s2)c(S(=O)(=O)NC(C)(C)C)c1` [Ex. 67A, trans-isopropyl N-[3-(tert-butylsulfamoyl)-4-[2-[4-(isopropoxycarbonylamino)cyclohexyl]thiazol-5-yl]phenyl]carbamate], the EC50 is greater than 1000 nM in data set [1]; greater than 10000 nM in [2]; 7230 nM in the data set with OV56 (Ovary); 344 nM with WSU-FSCCL (Lymphoma); 3400 nM with KYSE-510 (Head and Neck); 791 nM with U-698-M (Lymphoma). Besides, the EC50 is 311 nM with Daudi (Lymphoma); 932 nM in the data set on CCRF-SB (Leukemia); 2630 nM in the data set on KYSE-70 (Head and Neck); 3840 nM in the data set on SNU-5 (Gastric); 3000 nM in the data set with KG-1 (Leukemia); 100 to 1000 nM in [4]. Besides, the figures for the EC50 in the data set with SNU-1 (Gastric) and in the data set on TOV-1120D (Ovary) were 2930 nM and 4920 nM, respectively. Besides, the “F (%) @ 5 mg/kg” value in data set [3] (Rat Female) worked out at 86.5%; in data set [3] (Rat Male), 46.9%. The half-life was 11.5 h in data set [3] (Rat Female) and 6.46 h in data set [3] (Rat Male).
Turning to `CC(C)OC(=O)N[C@H]1CC[C@H](c2ncc(-c3ccc(NC(=O)NCc4ccccc4)cc3S(=O)(=O)NC(C)(C)C)s2)CC1` [Ex. 66A, trans-isopropyl N-[4-[5-[4-(benzylcarbamoylamino)-2-(tert-butylsulfamoyl)phenyl]thiazol-2-yl]cyclohexyl]carbamate], the concentration giving a half-maximal response (EC50) in data set [1] was greater than 1000 nM; in [2], greater than 10000 nM; with OV56 (Ovary), 5940 nM; in the data set with WSU-FSCCL (Lymphoma), 25 nM; in the data set on KYSE-510 (Head and Neck) it was 4520 nM; with U-698-M (Lymphoma), 88 nM. The EC50 is 18 nM in the data set on Daudi (Lymphoma); 183 nM in the data set on CCRF-SB (Leukemia); 2640 nM in the data set with KYSE-70 (Head and Neck); 2940 nM in the data set on SNU-5 (Gastric); 3070 nM with KG-1 (Leukemia); no more than 100 nM in data set [4]. Besides, the concentration for a half-maximal effect (EC50) is 609 nM in the data set with SNU-1 (Gastric) and 2380 nM in the data set with TOV-1120D (Ovary). In addition, the “F (%) @ 5 mg/kg” value in [3] (Rat Female) amounted to 3.31%; in [3] (Rat Male) it was 2.55%. Moreover, the half-life is 2.59 h in data set [3] (Rat Female) and 1.86 h in data set [3] (Rat Male).
